Results: patent US11505547B2, “Compounds” (STEP PHARMA S.A.S., priority 2017, dated 2022)

biological target: T1, human CTPS1 (Homo sapiens, UniProt P17812); assay: Human CTPS1 enzyme inhibition, ADP-Glo Max assay; format: biochemical; conditions: human full length CTPS1, read-out: CTPS1 (Human CTPS1 Enzyme Inhibition data grouped by potency range, IC50)
T1 construct: purchased Proteros biostructures GmbH
T1 sequence (P17812 1-591): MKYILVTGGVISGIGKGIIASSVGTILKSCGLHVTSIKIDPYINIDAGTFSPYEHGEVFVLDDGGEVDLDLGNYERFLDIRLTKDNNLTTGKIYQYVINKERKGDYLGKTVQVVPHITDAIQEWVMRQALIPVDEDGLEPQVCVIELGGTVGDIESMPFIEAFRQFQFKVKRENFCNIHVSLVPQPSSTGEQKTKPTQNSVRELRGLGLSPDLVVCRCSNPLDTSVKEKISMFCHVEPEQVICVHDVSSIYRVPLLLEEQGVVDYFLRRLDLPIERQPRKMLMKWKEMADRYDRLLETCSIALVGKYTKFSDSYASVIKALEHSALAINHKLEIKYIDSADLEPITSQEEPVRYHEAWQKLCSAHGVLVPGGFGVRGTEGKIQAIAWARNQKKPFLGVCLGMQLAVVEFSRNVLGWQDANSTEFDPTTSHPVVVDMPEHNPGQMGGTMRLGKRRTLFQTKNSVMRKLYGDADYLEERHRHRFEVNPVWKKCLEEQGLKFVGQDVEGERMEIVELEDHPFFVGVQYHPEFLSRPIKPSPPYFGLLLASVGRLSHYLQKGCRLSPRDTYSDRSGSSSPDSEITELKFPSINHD
In short: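 Full-length C-terminal FLAG-His-tagged protein in 50 mM Tris pH 8.0, 10 mM MgCl2, 0.01% Tween-20 and 2 mM L-cysteine, preincubated with compound for 10 min at 25 °C. The substrate mix held ATP 0.31 mM, GTP 0.034 mM, UTP 0.48 mM and L-glutamine 0.186 mM, and the reaction ran within its linear phase. ADP was read by ADP-Glo Max luminescence; IC50 from the % inhibition curve.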

`CCOc1cncc(-c2ccc(C(=O)NC(C)(C)c3nc(NS(=O)(=O)C4CC4)sc3C)nc2)n1` [Example R72, N-(2-(2-(cyclopropanesuIfonamido)-5-methylthiazol-4-yl)propan-2-yl)-5-(6-ethoxypyrazin-2-yl)picolinamide] and `CCOc1cncc(-c2ccc(C(=O)NC(C)(C)c3nc(NS(=O)(=O)C4CC4)sc3Cl)nc2)n1` [Example R73, N-(2-(5-chloro-2-(cyclopropanesulfonamido)thiazol-4-yl)propan-2-yl)-5-(6-ethoxypyrazin-2-yl)picolinamide] fall in the same range of IC50: 1000 to 10000 nM for the first, 1000 to 10000 nM for the second.

`CCOc1cncc(-c2ccc(C(=O)NC(C)(C)c3nc(NS(=O)(=O)C4CC4)sc3C)c(F)c2)n1` [Example R74, N-(2-(2-(cyclopropanesulfonamido)-5-methylthiazol-4-yl)propan-2-yl)-4-(6-ethoxypyrazin-2-yl)-2-fluorobenzamide] and `CCOc1cncc(-c2ccc(C(=O)NC(C)(C)c3nc(NS(=O)(=O)C4CC4)sc3Cl)c(F)c2)n1` [Example R75, N-(2-(5-chloro-2-(cyclopropanesulfonamido)thiazol-4-yl)propan-2-yl)-4-(6-ethoxypyrazin-2-yl)-2-fluorobenzamide] fall in the same range of IC50: 100 to 1000 nM for the first, 100 to 1000 nM for the second.

First: Cc1cc(-c2cncc(C(F)(F)F)n2)ccc1C(=O)NC(C)(C)c1nc(NS(=O)(=O)C2CC2)sc1C [Example R76, N-(2-(2-(cyclopropanesuIfonamido)-5-methylthiazol-4-yl)propan-2-yl)-2-methyl-4-(6-(trifluoromethyl)pyrazin-2-yl)benzamide]
Second: Cc1cc(-c2cncc(C(F)(F)F)n2)ccc1C(=O)NC(C)(C)c1nc(NS(=O)(=O)C2CC2)sc1Cl [Example R77, N-(2-(5-chloro-2-(cyclopropanesulfonamido)thiazol-4-yl)propan-2-yl)-2-methyl-4-(6-(trifluoromethyl)pyrazin-2-yl)benzamide]
The IC50 of the first is lower: 100 to 1000 nM for the first, 1000 to 10000 nM for the second. The first is the more potent here.

`Cc1sc(NS(=O)(=O)C2CC2)nc1C(C)(C)NC(=O)c1ccc(-c2cncc(C(F)(F)F)n2)cc1` [Example R78, N-(2-(2-(cyclopropanesuIfonamido)-5-methylthiazol-4-yl)propan-2-yl)-4-(6-(trifluoromethyl)pyrazin-2-yl)benzamide] and `CC(C)(NC(=O)c1ccc(-c2cncc(C(F)(F)F)n2)cc1)c1nc(NS(=O)(=O)C2CC2)sc1Cl` [Example R79, N-(2-(5-chloro-2-(cyclopropanesulfonamido)thiazol-4-yl)propan-2-yl)-4-(6-(trifluoromethyl)pyrazin-2-yl)benzamide] fall in the same range of IC50: 100 to 1000 nM for the first, 100 to 1000 nM for the second.

`CCOc1cncc(-c2ccc(C(=O)NC3(c4csc(NS(=O)(=O)C5CC5)n4)CC3)nc2)n1` [Example R80, N-(1-(2-(cyclopropanesulfonamido)thiazol-4-yl)cyclopropyl)-5-(6-ethoxypyrazin-2-yl)picolinamide] and `CCOc1cncc(-c2ccc(C(=O)NC3(c4csc(NS(=O)(=O)C5CC5)n4)CC3)c(F)c2)n1` [Example R82, N-(1-(2-(cyclopropanesulfonamido)thiazol-4-yl)cyclopropyl)-4-(6-ethoxypyrazin-2-yl)-2-fluorobenzamide] cannot be ordered by IC50: < 100 nM for the first, < 100 nM for the second.

First: O=C(NC1(c2csc(NS(=O)(=O)C3CC3)n2)CC1)c1ccc(-c2cccnc2)cc1 [Example R81, N-(1-(2-(cyclopropanesulfonamido)thiazol-4-yl)cyclopropyl)-4-(pyridin-3-yl)benzamide]
Second: O=C(NC1(c2csc(NS(=O)(=O)C3CC3)n2)CC1)c1ccc(-c2cncc(C(F)(F)F)n2)cc1 [Example R84, N-(1-(2-(cyclopropanesulfonamido)thiazol-4-yl)cyclopropyl)-4-(6-(trifluoromethyl)pyrazin-2-yl)benzamide]
The IC50 of the first is higher: 100 to 1000 nM for the first, < 100 nM for the second.

First: Cc1cc(-c2cncc(C(F)(F)F)n2)ccc1C(=O)NC1(c2csc(NS(=O)(=O)C3CC3)n2)CC1 [Example R83, N-(1-(2-(cyclopropanesulfonamido)thiazol-4-yl)cyclopropyl)-2-methyl-4-(6-(trifluoromethyl)pyrazin-2-yl)benzamide]
Second: COCCC(NC(=O)c1ccc(-c2cncc(C(F)(F)F)n2)cc1F)c1csc(NS(=O)(=O)C2CC2)n1 (stereo not drawn) [Example R87, N-(1-(2-(cyclopropanesulfonamido)thiazol-4-yl)-3-methoxypropyl)-2-fluoro-4-(6-(trifluoromethyl)pyrazin-2-yl)benzamide]
The IC50 of the first is lower: < 100 nM for the first, 100 to 1000 nM for the second.

First: COCCC(NC(=O)c1ccc(-c2cncc(F)c2)cc1)c1csc(NS(=O)(=O)C2CC2)n1 (stereo not drawn) [Example R85, N-(1-(2-(cyclopropanesulfonamido)thiazol-4-yl)-3-methoxypropyl)-4-(5-fluoropyridin-3-yl)benzamide]
Second: CCOc1cncc(-c2ccc(C(=O)NC(CCOC)c3csc(NS(=O)(=O)C4CC4)n3)cc2)n1 (stereo not drawn) [Example R90, N-(1-(2-(cyclopropanesulfonamido)thiazol-4-yl)-3-methoxypropyl)-4-(6-ethoxypyrazin-2-yl)benzamide]
The IC50 of the first is higher: 100 to 1000 nM for the first, < 100 nM for the second.

`CCc1cncc(-c2ccc(C(=O)NC(CCOC)c3csc(NS(=O)(=O)C4CC4)n3)c(F)c2)n1` (stereo not drawn) [Example R86, N-(1-(2-(cyclopropanesulfonamido)thiazol-4-yl)-3-methoxypropyl)-4-(6-ethylpyrazin-2-yl)-2-fluorobenzamide] and `CCOc1cncc(-c2ccc(C(=O)NC(CCOC)c3csc(NS(=O)(=O)C4CC4)n3)c(F)c2)n1` (stereo not drawn) [Example R88, N-(1-(2-(cyclopropanesulfonamido)thiazol-4-yl)-3-methoxypropyl)-4-(6-ethoxypyrazin-2-yl)-2-fluorobenzamide] fall in the same range of IC50: 100 to 1000 nM for the first, 100 to 1000 nM for the second.

`COCCC(NC(=O)c1ccc(-c2cncc(OC(C)C)n2)cc1F)c1csc(NS(=O)(=O)C2CC2)n1` (stereo not drawn) [Example R89, N-(1-(2-(cyclopropanesulfonamido)thiazol-4-yl)-3-methoxypropyl)-2-fluoro-4-(6-isopropoxypyrazin-2-yl)benzamide] and `CCOc1cncc(-c2ccc(C(=O)NC(C)c3csc(NS(=O)(=O)C4CC4)n3)c(F)c2)n1` (stereo not drawn) [Example R91, N-(1-(2-(cyclopropanesulfonamido)thiazol-4-yl)ethyl)-4-(6-ethoxypyrazin-2-yl)-2-fluorobenzamide] cannot be ordered by IC50: < 100 nM for the first, < 100 nM for the second.

biological target: T1, human CTPS1; assay: RapidFire/MS-based enzyme selectivity assay, human CTPS1; format: biochemical; conditions: RapidFire/MS IC50s, human CTPS1 versus CTPS2
Description: Biological Example 2—RapidFire/MS-Based Enzyme Selectivity Assays
Human CTPS1 Versus CTPS2 Selectivity Assessment by RapidFire/MS Analysis.
The enzyme inhibitory activities against each target isoform of interest were determined for the compounds of the invention using an optimised RapidFire high-throughput mass spectrometry (RF/MS) assay format. RF/MS assays for both human CTPS1 and CTPS2 were performed in assay buffer consisting of 50 mM HEPES (Merck), 20 mM MgCl2, 5 mM KCl, 1 mM DTT, 0.01% Tween-20, pH to 8.0 accordingly. All reagents were from Sigma-Aldrich unless specified otherwise. Human full-length active C-terminal FLAG-His-tag CTPS1 (UniProtKB-P17812, CTPS[1-591]-[…]) was obtained from Proteros biostructures GmbH. Human full length active C-terminal FLAG-His-Avi tagged CTPS2 (UniProtKB-Q9NRF8, CTPS2 [1-586]-[…]) was obtained from Harker Bio.
Human CTPS (1 or 2) protein was prepared in 1× assay buffer to the final working protein concentration required for the reaction. A 2 uL volume per well of 2×CTPS (1 or 2) protein was mixed with 40 nL of compound using acoustic (ECHO) delivery and incubated for 10 minutes at 25° C. Each isoform enzymatic reaction was subsequently initiated by addition of 2 uL per well of a 2× substrate mix in assay buffer. For hCTPS1: ATP (0.3 mM), UTP (0.2 mM), GTP (0.07 mM) and L-glutamine (0.1 mM). For hCTPS2: ATP (0.1 mM), UTP (0.04 mM), GTP (0.03 mM) and L-glutamine (0.1 mM). Each mixture was incubated for an appropriate amount of time per isoform within the determined linear phase of the reaction at 25° C. A 60 uL volume of stop solution (1% formic acid with 0.5 uM ^13C9-^15N3-CTP in H2O) was added and the plate immediately heat-sealed and centrifuged for 10 minutes at 4,000 rpm. Following centrifugation, plates were loaded onto the Agilent RapidFire microfluidic solid phase extraction system coupled to an API4000 triple quadrupole mass spectrometer (RF/MS) for analysis.
In all cases, the enzyme converts UTP to CTP. […] Readout for data analysis was calculated as the ratio between the peak area of the product CTP and the internal standard ^13C9-^15N3-CTP. […]
(R=ratio/readout, P=product signal area, IS=internal standard signal area) […]
(I=Inhibition, Rneg=median of negative control readout values, Rpos=median of positive control readout values, Rsample=sample readout value)
Percentage inhibition was then plotted against compound concentration, and the 50% inhibitory concentration ([…]) was determined from the resultant concentration-response curve.
Fold selectivity between CTPS1 and CTPS2 was subsequently calculated according to the following equation: […]

With `CCOc1cncc(-c2ccc(C(=O)NC(CCOC)c3csc(NS(=O)(=O)C4CC4)n3)c(F)c2)n1` (single isomer, unassigned) [Example R93, N-(1-(2-(cyclopropanesulfonamido)thiazol-4-yl)-3-methoxypropyl)-4-(6-ethoxypyrazin-2-yl)-2-fluorobenzamide] the “Selectivity (fold selectivity between CTPS1 and CTPS2)” value was “+++ (>60 fold (+++))”.
